# From patent US20240307361A1, “METHOD FOR DIAGNOSING AND TREATING IRRITABLE BOWEL SYNDROME” (Centre for Chinese Herbal Medicine Drug Development Limited, priority 2023, published 2024)
# Columns and labels:
# TAAR1 [1] = target: T1, TAAR1 (Mus musculus, UniProt Q923Y8); assay: TAAR1 antagonist EPPTB in phenethylamine-treated mice; format: in vivo; details: EPPTB 10 mg/kg, phenethylamine 10 mg/kg, p<0.05
# T1 construct: is expressed in EC cells in the GI tract; from tissue; host or cells: living mice (conventional, antibiotic-treated, or wild-type littermates of Taar1 KO, C57Bl/6J)
# T1 sequence (Q923Y8 whole entry): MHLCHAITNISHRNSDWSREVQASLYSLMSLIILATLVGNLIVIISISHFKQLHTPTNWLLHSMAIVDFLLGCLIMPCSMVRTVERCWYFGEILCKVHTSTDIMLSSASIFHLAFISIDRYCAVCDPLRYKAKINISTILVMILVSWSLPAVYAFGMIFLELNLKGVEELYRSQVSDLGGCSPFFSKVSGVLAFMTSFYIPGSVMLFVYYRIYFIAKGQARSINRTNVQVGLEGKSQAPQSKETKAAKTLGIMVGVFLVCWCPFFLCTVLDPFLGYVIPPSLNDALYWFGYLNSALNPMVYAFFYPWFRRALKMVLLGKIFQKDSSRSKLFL
# Protocol: (§1) To study phenethylamine and tryptamine effects on 5-HT production, phenethylamine and tryptamine at a dosage of 2 mg/kg, 5 mg/kg and 10 mg/kg (dissolved in 0.5% CMC-Na, sodium carboxymethyl cellulose) were administered to mice by oral gavage. Mice treated with/without phenethylamine and tryptamine were sacrificed under isoflurane anesthesia. Biological samples including serum, duodenum, ileum, proximal colon and distal colon tissues and luminal contents in each intestinal segments were collected at indicated dosages and times and stored at −80° C. until analysis.
# (§2) For the fecal pellet water content test, 1.5 mL Eppendorf tubes were pre-weighed and used to collect fecal pellets from mice immediately after defecation. The tubes were then closed to measure wet weight. Afterward, the tubes were opened and placed in an oven at 60° C. overnight to measure the dry weight. Fecal pellet water content was measured by subtracting the dry weight from the wet weight and normalizing it to the wet pellet mass. Fecal pellets from mice were also counted within 2 h of the defecation frequency test.
# (§3) Carmine red assay: Mice were administered 300 μL of 6% carmine red solution (prepared by 0.5% methylcellulose) by oral gavage to measure the GI transit time after treatment with phenethylamine at the indicated dosages. The mice were placed on white sheet paper to track the red pellet in their cages after oral gavage. The total time taken for the appearance of the first red pellet after oral gavage was recorded as gut transit time.
# (§4) Colonic tissues were lysed in RIPA buffer containing protease inhibitor cocktails in a tissuelyzer. The tissue lysates were centrifuged at 15,000 rpm for 15 min at 4° C. and quantified by BCA kit for protein concentration. The protein content normalized supernatant was mixed with 5× loading buffer and heated at 98° C. in a dry bath for 10 min. The samples were evaluated according to the western blotting protocol (Abcam). The blots were incubated with HRP-conjugated anti-rabbit IgG or anti-mouse IgG and reacted with enhanced chemiluminescence.
# TAAR1 [2] = target: T1, TAAR1; assay: EPPTB on phenethylamine-induced 5-HT elevation in mice intestine tissues cultured ex vivo; format: cell-based; details: EPPTB 50 μM, p<0.05, FIG. 5I
# Protocol: (§5) Mouse and human colonic tissues were collected as previously described. To investigate the effects of phenethylamine on 5-HT levels in mouse and human colon tissues, the colonic tissues were cut into small pieces (0.5 cm) and placed in a 12-well cell culture plate. Colon pieces were added to DMEM/F12 medium containing 5% fetal bovine serum, penicillin-streptomycin (1×), and gentamycin (20 μg/ml), followed by treatment with phenethylamine and EPPTB, as indicated. Colon pieces were incubated at 37° C. with 5% CO2 and 95% air. A 200 μL volume of medium was collected from each well at the indicated time points for the analysis of 5-HT.
# TAAR1 [3] = target: T1, TAAR1; assay: EPPTB in antibiotic-treated mice colonized with R. gnavus (ATCC 29149); format: in vivo; details: EPPTB 10 mg/kg, p<0.05
# Protocol: A broad-spectrum antibiotic mixture (ABX) containing vancomycin (100 mg/kg), neomycin (200 mg/kg), metronidazole (200 mg/kg), and ampicillin (200 mg/kg) was used to establish an antibiotic-treated mouse model. Briefly, the antibiotic mixture was administered to mice by oral gavage for 10 consecutive days prior to fecal microbial transplantation (FMT) or the colonization study.
# R. gnavus (strain ATCC 29149) was first grown on tryptic soy broth (TSB) agar plates and cultured in TSB broth using a single colony. R. gnavus (strain ATCC 29149) was collected from the medium by centrifuging at 3,500 rpm for 10 min at room temperature. These bacterial strains were then reconstituted in 200 μL of sterilized phosphate-buffered saline and administered to antibiotic-treated mice by oral gavage. Fecal samples were collected daily to measure fecal phenethylamine levels in antibiotic-treated mice before and after oral administration of bacterial strains.
# as §2, §3
# TAAR1 [4] = target: T1, TAAR1; assay: EPPTB in antibiotic-treated mice transplanted with IBS-D fecal microbiota (FMT); format: in vivo; details: EPPTB 10 mg/kg, p<0.05
# Protocol: A broad-spectrum antibiotic mixture (ABX) containing vancomycin (100 mg/kg), neomycin (200 mg/kg), metronidazole (200 mg/kg), and ampicillin (200 mg/kg) was used to establish an antibiotic-treated mouse model. Briefly, the antibiotic mixture was administered to mice by oral gavage for 10 consecutive days prior to fecal microbial transplantation (FMT) or the colonization study. For the fecal pellet water content test, 1.5 mL Eppendorf tubes were pre-weighed and used to collect fecal pellets from mice immediately after defecation. The tubes were then closed to measure wet weight. Afterward, the tubes were opened and placed in an oven at 60° C. overnight to measure the dry weight. Fecal pellet water content was measured by subtracting the dry weight from the wet weight and normalizing it to the wet pellet mass. Fecal pellets from mice were also counted within 2 h of the defecation frequency test. Carmine red assay: […] The mice were placed on white sheet paper to track the red pellet in their cages after oral gavage. The total time taken for the appearance of the first red pellet after oral gavage was recorded as gut transit time. Fecal samples from IBS-D patients and HC participants (n=8/group) were prepared as suspensions in PBS at a concentration of (100 mg/mL). […] After the FMT, GI transit, stool consistency, and defecation frequency were measured. […]
# 5-HTR4 = target: T2, 5-HTR4 (Homo sapiens, UniProt Q13639); assay: 5-HTR4 antagonist Piboserod on phenethylamine/tryptamine-stimulated 5-HT in QGP-1 cells; format: cell-based; details: 24 hours, FIG. 11M
# T2 construct: endogenous in cells; host or cells: QGP-1
# T2 sequence (Q13639 whole entry): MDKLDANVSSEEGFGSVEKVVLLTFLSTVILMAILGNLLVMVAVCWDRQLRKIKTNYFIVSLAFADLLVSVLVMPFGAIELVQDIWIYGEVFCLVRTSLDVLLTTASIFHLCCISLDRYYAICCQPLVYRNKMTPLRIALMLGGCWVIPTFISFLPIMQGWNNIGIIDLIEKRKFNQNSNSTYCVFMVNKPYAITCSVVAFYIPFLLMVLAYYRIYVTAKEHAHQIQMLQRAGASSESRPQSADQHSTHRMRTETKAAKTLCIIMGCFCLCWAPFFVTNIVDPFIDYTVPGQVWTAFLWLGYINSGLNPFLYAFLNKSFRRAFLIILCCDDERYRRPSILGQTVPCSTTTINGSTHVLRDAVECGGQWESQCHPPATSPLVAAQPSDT
# Protocol: (§6) QGP-1 cells were cultured in RPMI 1640 medium supplemented with 10% fetal bovine serum (FBS). QGP-1 is a human pancreatic endocrine cell line that produces 5-HT. To evaluate the effects of phenylalanine, phenethylamine, and phenylacetic acid on 5-HT production, QGP-1 cells were treated with or without phenylalanine, phenethylamine, and phenylacetic acid at the indicated concentrations and times.
# mouse intestinal tissues = assay: 5-HT production in mouse intestinal tissues cultured ex vivo; format: cell-based; details: 25 μM and 50 μM, p<0.05, FIG. 4A-B
# Protocol: as §5
# (§7) An Agilent 1290 Infinity II UPLC system coupled to a triple quadrupole (QQQ) 6470 mass spectrometer was used for targeted metabolomics profiling. A Waters BEH 2.1×50 mm C18 1.7 μm column with a pre-column was used. The mobile phase used in LC-MS-QQQ was solution A (water with 0.1% formic acid) and solution B (acetonitrile with 0.1% formic acid). The gradients were set as 2% B (0-0.5 min), 2%-30% B (0.5-4 min), […] B (4-6 min), 100% B (6-8 min), 100%-2% B (8-8.1 min) and maintain in 2% B (8.1-10 min). The MS data were collected and processed using Agilent software. The standard list, MRM transition, fragmentor, and collision energy are listed in (Table 3).
# human colonic tissues = assay: 5-HT production in human colonic tissues cultured ex vivo; format: cell-based; details: 50 μM, p<0.05, FIG. 10A
# Protocol: as §5, §7
# 5-HT production = assay: Oral phenethylamine/tryptamine administration in mice: 5-HT levels, GI transit, fecal water content; format: in vivo, mouse; details: for GI transit / fecal water content / serum and intestinal 5-HT levels: mice, oral administration, 2, 5 and 10 mg/kg, p<0.01
# Protocol: as §7, §1, §2, §3
# [5] = Phenethylamine level in intestinal tissues and luminal content after oral gavage; format: in vivo, mouse; details: for concentration at 0 min / concentration at 15 min / concentration at 30 min: mouse, oral
# Protocol: as §7, §1
# PKA and CaMKII = assay: Western blot of PKA and CaMKII phosphorylation in colonic tissues of phenethylamine-treated mice; format: in vivo, mouse; details: colonic tissues of mice, 2, 5 and 10 mg/kg, p<0.05
# Protocol: as §1, §4
# TAAR1 [6] = target: T1, TAAR1; assay: Phenethylamine in Taar1-/- mice and wild-type littermates; format: in vivo; details: Taar1-/- mice vs wild-type littermates, phenethylamine 10 mg/kg, p<0.05
# Protocol: as §2, §3
# Taar1 (NM_053205) knockout mouse model (C57Bl/6J) was generated by CRISPR/Cas-mediated genome engineering. All the Taar1 KO mice and their wildtype littermates were genotyped using PCR and Southern blot [F1: […] (SEQ ID NO:3), R1: […] (SEQ ID NO:4), R2: […] (SEQ ID NO:5)]. The product size of F1 and R1 is 989 bp while the product size of F1 and R2 is 625 bp. […]
# QGP-1 cells = assay: 5-HT production in QGP-1 cells; format: cell-based, human; details: 25-200 μM, 24 hours, FIG. 10D-E
# Protocol: as §6, §7
# [7] = serum of phenethylamine-treated mice, FIG. 5A
molecule,measurement,setting,value
"CCOc1cccc(NC(=O)c2ccc(N3CCCC3)c(C(F)(F)F)c2)c1 [EPPTB, N-(3-ethoxy-phenyl)-4-pyrrolidin-1-yl-3-trifluoromethyl-benzamide]",phenethylamine-induced 5-HT production,TAAR1 [1]; mice,suppressed
same,phenethylamine-induced 5-HTP/Trp and 5-HT/5-HTP ratios,TAAR1 [1]; mice,inhibited by EPPTB treatment
same,phenethylamine-induced GI transit acceleration,TAAR1 [1]; mice,suppressed
same,phenethylamine-induced colonic secretion increase,TAAR1 [1]; mice,suppressed
same,phenethylamine-induced increased levels of serum 5-HTP,TAAR1 [1]; mice,inhibited by EPPTB treatment
same,phenethylamine-induced activation of PKA and CaMKII,TAAR1 [1]; proximal colonic tissues of mice,inhibited
same,phenethylamine-induced 5-HT elevation in mice intestine tissues cultured ex vivo,TAAR1 [2],suppressed
same,R. gnavus-induced 5-HT elevation in serum,TAAR1 [3],suppressed by EPPTB treatment
same,R. gnavus-induced accelerated GI transit,TAAR1 [3],suppressed by EPPTB treatment
same,R. gnavus-induced increased fecal water content,TAAR1 [3],suppressed by EPPTB treatment
same,"pathological changes induced by transplantation of IBS-D fecal microbiota (colonic 5-HT, GI transit, defecation frequency)",TAAR1 [4],largely suppressed
CCCCN1CCC(CNC(=O)c2c3n(c4ccccc24)CCCO3)CC1 [Piboserod],5-HT levels stimulated by phenethylamine or tryptamine,5-HTR4,did not restore 5-HT levels
same,tryptamine-stimulated 5-HT production,5-HTR4,modest reduction of tryptamine-stimulated 5-HT production
NCCc1ccccc1 [phenethylamine],5-HT production in mouse intestinal tissues,mouse intestinal tissues,significantly enhanced 5-HT production
same,5-HT production in human colonic tissues,human colonic tissues,significantly enhanced 5-HT production
same,circulating 5-HTP levels,"5-HT production; mice, 2, 5 and 10 mg/kg, FIG. 11A-C",increase in circulating 5-HTP levels in mice in a dose-dependent manner
same,GI transit,5-HT production,accelerated GI transit
same,fecal water content,5-HT production,increased fecal water content
same,serum and intestinal 5-HT levels,5-HT production,significantly elevated serum and intestinal 5-HT levels
same,5-HIAA/5-HT ratio,5-HT production; [7],"but not the 5-HIAA/5-HT ratio, were increased"
same,5-HT/5-HTP ratio,5-HT production; [7],increased
same,5-HTP/Trp ratio,5-HT production; [7],increased
same,"Phenethylamine level, Concentration","[5]; Duodenum, 15 min",1082 µg/g
same,"Phenethylamine level, Concentration","[5]; Luminal content in duodenum, 15 min",1245 µg/g
same,"Phenethylamine level, Concentration","[5]; Luminal content in duodenum, 30 min",1200 µg/g
same,concentration at 0 min,"[5]; luminal content of duodenum, Luminal content in duodenum",3000 ng/g
same,concentration at 0 min,"[5]; luminal content of ileum, Luminal content in ileum",1670 ng/g
same,concentration at 15 min,"[5]; luminal content of ileum, Luminal content in ileum, 15 min",29700 ng/g
same,concentration at 30 min,"[5]; luminal content of ileum, Luminal content in ileum, 30 min",9300 ng/g
same,concentration at 0 min,"[5]; luminal content of proximal colon, Luminal content in proximal colon",3700 ng/g
same,concentration at 15 min,"[5]; luminal content of proximal colon, Luminal content in proximal colon, 15 min",112000 ng/g
same,concentration at 30 min,"[5]; luminal content of proximal colon, Luminal content in proximal colon, 30 min",58900 ng/g
same,concentration at 0 min,[5]; Duodenum,230 ng/g
same,concentration at 30 min,"[5]; Duodenum, 30 min",879000 ng/g
same,concentration at 0 min,[5]; Ileum,240 ng/g
same,concentration at 15 min,"[5]; Ileum, 15 min",24000 ng/g
same,concentration at 30 min,"[5]; Ileum, 30 min",8000 ng/g
same,concentration at 0 min,[5]; Proximal colon,12000 ng/g
same,concentration at 15 min,"[5]; Proximal colon, 15 min",116000 ng/g
same,concentration at 30 min,"[5]; Proximal colon, 30 min",38000 ng/g
same,phosphorylation of PKA and CaMKII,PKA and CaMKII,an increase in the phosphorylation of these proteins
same,"phenethylamine-induced changes in 5-HT production, GI transit and secretion under genetic ablation of TAAR1",TAAR1 [6],"abolished phenethylamine-induced changes in 5-HT production, GI transit, and secretion"
O=C(O)Cc1ccccc1 [phenylacetic acid],5-HT levels in QGP-1 cells (precursors and metabolites),QGP-1 cells,did not change the 5-HT levels
N[C@@H](Cc1ccccc1)C(=O)O [phenylalanine],5-HT levels in QGP-1 cells (precursors and metabolites),QGP-1 cells,did not change the 5-HT levels
NCCc1c[nH]c2ccccc12 [tryptamine],5-HT production in mouse intestinal tissues,mouse intestinal tissues,significantly enhanced 5-HT production
same,5-HT production in human colonic tissues,human colonic tissues,significantly enhanced 5-HT production
same,GI transit,5-HT production,accelerated GI transit
same,fecal water content,5-HT production,increased fecal water content
same,serum and intestinal 5-HT levels,5-HT production,significantly elevated serum and intestinal 5-HT levels
N[C@@H](Cc1c[nH]c2ccccc12)C(=O)O [tryptophan],5-HT levels in QGP-1 cells (precursors and metabolites),QGP-1 cells,did not change the 5-HT levels
indole acetic acid,5-HT levels in QGP-1 cells (precursors and metabolites),QGP-1 cells,did not change the 5-HT levels
